From US20100267561A1, “HERBICIDAL PYRIDAZINONE DERIVATIVES” (priority 2007, published 2010)

Columns and labels:
Assay in all cases: Test B pre-/postemergence plant response
Assay type in all cases: in vivo
[1] = tested on: blackgrass (Alopecurus myosuroides)
Procedure, shortened: (§1)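 Visual scoring from 0 (no effect) to 100 (complete control) against untreated controls was done 13 to 15 days after greenhouse treatment. Chemicals were formulated in a surfactant-containing non-phytotoxic solvent and applied to soil preemergence or to 1- to 4-leaf (2-18 cm) plants postemergence.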

[2] = tested on: catchweed bedstraw (Galium aparine); details: Preemergence
Procedure, shortened: as §1

[3] = tested on: cocklebur (Xanthium strumarium)
Procedure, shortened: as §1

[4] = tested on: common ragweed (Ambrosia elation)
Procedure, shortened: as §1

[5] = tested on: corn (Zea mays)
Procedure, shortened: as §1

[6] = tested on: green foxtail (Setaria viridis)
Procedure, shortened: as §1

[7] = tested on: kochia (Kochia scoparia)
Procedure, shortened: as §1

[8] = tested on: lambsquarters (Chenopodium album)
Procedure, shortened: as §1

[9] = tested on: large crabgrass (Digitaria sanguinalis)
Procedure, shortened: as §1

[10] = tested on: pigweed (Amaranthus retroflexus)
Procedure, shortened: as §1

[11] = tested on: velvetleaf (Abutilon theophrasti)
Procedure, shortened: as §1

[12] = tested on: wild oat (Avena fatua)
Procedure, shortened: as §1

[13] = tested on: woolly cupgrass (Eriochloa villosa)
Procedure, shortened: as §1

[14] = tested on: yellow nutsedge (Cyperus esculentus)
Procedure, shortened: as §1

[15] = 8 g ai/ha, postemergence, 0-100 scale
[16] = 16 g ai/ha, postemergence, 0-100 scale
[17] = Postemergence, 31 g ai/ha, scale 0 to 100
[18] = Postemergence, 62 g ai/ha, scale 0 to 100, 0 no effect, 100 complete control
[19] = Preemergence, 8 g ai/ha, scale 0 to 100 (0 no effect, 100 complete control)
[20] = Preemergence, 31 g ai/ha, scale 0 to 100 (0 no effect, 100 complete control)
[21] = Preemergence, 62 g ai/ha, 0 to 100 scale, 0 no effect, 100 complete control
[22] = Preemergence, 16 g ai/ha, scale 0 to 100

CCc1c(C)c(-c2ccc(Br)cc2)nn1-c1c(O)cnn(C)c1=O [Compound 83]
Blackgrass plant response rating [1, 15]: 70
Blackgrass plant response rating [1, 16]: 95
Plant response rating, Blackgrass [1, 17]: 95
Plant response rating, Blackgrass [1, 18]: 100
Blackgrass plant response rating [1, 19]: 0
Plant response rating, Blackgrass [1, 20]: 80
Plant response rating, Blackgrass [1, 21]: 98
Blackgrass plant response rating [1, 22]: 30
Galium plant response rating ([2]; 8 g ai/ha, scale 0 to 100 (0 no effect, 100 complete control)): 0
Plant response rating, Galium ([2]; 31 g ai/ha, scale 0 to 100 (0 no effect, 100 complete control)): 0
Plant response rating, Galium ([2]; 62 g ai/ha, 0 to 100 scale, 0 no effect, 100 complete control): 0
Galium plant response rating ([2]; 16 g ai/ha, scale 0 to 100): 0
Cocklebur plant response rating [3, 15]: 0
Cocklebur plant response rating [3, 16]: 0
Plant response rating, Cocklebur [3, 17]: 0
Plant response rating, Cocklebur [3, 18]: 0
Cocklebur plant response rating [3, 19]: 0
Plant response rating, Cocklebur [3, 20]: 0
Plant response rating, Cocklebur [3, 21]: 0
Cocklebur plant response rating [3, 22]: 0
Ragweed plant response rating [4, 15]: 0
Ragweed plant response rating [4, 16]: 0
Plant response rating, Ragweed [4, 17]: 0
Plant response rating, Ragweed [4, 18]: 0
Ragweed plant response rating [4, 19]: 0
Plant response rating, Ragweed [4, 20]: 0
Plant response rating, Ragweed [4, 21]: 0
Ragweed plant response rating [4, 22]: 0
Corn plant response rating [5, 15]: 65
Corn plant response rating [5, 16]: 95
Plant response rating, Corn [5, 17]: 98
Plant response rating, Corn [5, 18]: 100
Corn plant response rating [5, 19]: 0
Plant response rating, Corn [5, 20]: 95
Plant response rating, Corn [5, 21]: 95
Corn plant response rating [5, 22]: 45
Foxtail, Green plant response rating [6, 15]: 60
Foxtail, Green plant response rating [6, 16]: 65
Plant response rating, Foxtail, Green [6, 17]: 98
Plant response rating, Foxtail, Green [6, 18]: 100
Foxtail, Green plant response rating [6, 19]: 40
Plant response rating, Foxtail, Green [6, 20]: 80
Plant response rating, Foxtail, Green [6, 21]: 100
Foxtail, Green plant response rating [6, 22]: 70
Kochia plant response rating [7, 15]: 0
Kochia plant response rating [7, 16]: 0
Plant response rating, Kochia [7, 17]: 0
Plant response rating, Kochia [7, 18]: 0
Kochia plant response rating [7, 19]: 50
Plant response rating, Kochia [7, 20]: 100
Plant response rating, Kochia [7, 21]: 100
Kochia plant response rating [7, 22]: 100
Lambsquarters plant response rating [8, 15]: 0
Lambsquarters plant response rating [8, 16]: 0
Plant response rating, Lambsquarters [8, 17]: 0
Plant response rating, Lambsquarters [8, 18]: 0
Lambsquarters plant response rating [8, 19]: 100
Plant response rating, Lambsquarters [8, 20]: 100
Plant response rating, Lambsquarters [8, 21]: 100
Lambsquarters plant response rating [8, 22]: 100
Crabgrass, Large plant response rating [9, 15]: 80
Crabgrass, Large plant response rating [9, 16]: 95
Plant response rating, Crabgrass, Large [9, 17]: 100
Plant response rating, Crabgrass, Large [9, 18]: 100
Crabgrass, Large plant response rating [9, 19]: 0
Plant response rating, Crabgrass, Large [9, 20]: 85
Plant response rating, Crabgrass, Large [9, 21]: 100
Crabgrass, Large plant response rating [9, 22]: 35
Pigweed plant response rating [10, 15]: 0
Pigweed plant response rating [10, 16]: 0
Plant response rating, Pigweed [10, 17]: 0
Plant response rating, Pigweed [10, 18]: 20
Pigweed plant response rating [10, 19]: 0
Plant response rating, Pigweed [10, 20]: 0
Plant response rating, Pigweed [10, 21]: 0
Pigweed plant response rating [10, 22]: 0
Velvetleaf plant response rating [11, 15]: 0
Velvetleaf plant response rating [11, 16]: 0
Plant response rating, Velvetleaf [11, 17]: 0
Plant response rating, Velvetleaf [11, 18]: 20
Velvetleaf plant response rating [11, 19]: 0
Plant response rating, Velvetleaf [11, 20]: 0
Plant response rating, Velvetleaf [11, 21]: 0
Velvetleaf plant response rating [11, 22]: 0
Oat, Wild plant response rating [12, 15]: 98
Oat, Wild plant response rating [12, 16]: 100
Plant response rating, Oat, Wild [12, 17]: 100
Plant response rating, Oat, Wild [12, 18]: 100
Oat, Wild plant response rating [12, 19]: 0
Plant response rating, Oat, Wild [12, 20]: 80
Plant response rating, Oat, Wild [12, 21]: 85
Oat, Wild plant response rating [12, 22]: 30
Cupgrass, Woolly plant response rating [13, 15]: 65
Cupgrass, Woolly plant response rating [13, 16]: 95
Plant response rating, Cupgrass, Woolly [13, 17]: 98
Plant response rating, Cupgrass, Woolly [13, 18]: 100
Cupgrass, Woolly plant response rating [13, 19]: 65
Plant response rating, Cupgrass, Woolly [13, 20]: 100
Plant response rating, Cupgrass, Woolly [13, 21]: 100
Cupgrass, Woolly plant response rating [13, 22]: 90
Nutsedge, Yellow plant response rating [14, 15]: 0
Nutsedge, Yellow plant response rating [14, 16]: 0
Plant response rating, Nutsedge, Yellow [14, 17]: 0
Plant response rating, Nutsedge, Yellow [14, 18]: 0
Nutsedge, Yellow plant response rating [14, 19]: 0
Plant response rating, Nutsedge, Yellow [14, 20]: 0
Plant response rating, Nutsedge, Yellow [14, 21]: 0
Nutsedge, Yellow plant response rating [14, 22]: 0
